The subject of assay [1] is unilateral transverse femur fractures mice. The following applies: osteoclast inhibitors; cited from earlier work.
The subject of assay [2] is three millimeter defects in femurs of athymic rats. The assay can be described thus: Critical defect model in rat femurs, new bone formation by MicroCT. The format is in vivo. The following applies: two micrograms recombinant RANKL mixed with 150 mg Grafton DBM FLEX vs Grafton DBM FLEX alone, three weeks. On the procedure: To test whether recombinant RANKL mixed with DBM may aid bone healing, a critical defect model was used in rat femurs. Three millimeter defects were created in femurs of athymic rats. The rats were divided into two groups, the bone defects from one group were implanted with 150 mg of Grafton® DBM FLEX (Osteotech, Eatontown, N.J.), the second group received Grafton® DBM FLEX mixed with two micrograms of recombinant RANKL. At three weeks, the rat femur defects were evaluated by MicroCT. […] Data was analyzed using paired student-t-test.

Consider three molecules from patent US9597431B2, “Compositions and methods for promoting bone formation” (Warsaw Orthopedic, Inc., priority 2008, dated 2017).

As to `NCCCC(O)(P(=O)(O)O)P(=O)(O)O` [alendronate], the “removal of cartilage and remodeling of the fracture callus” value in assay [1] is given as “delayed”.
For the molecule denosumab: osteoclast inhibitor, in assay [1], the “removal of cartilage and remodeling of the fracture callus” value was “delayed”.

B1: RANKL: recombinant receptor activator for nuclear factor κ B ligand, mixed with Grafton DBM FLEX demineralized bone matrix implant (protein, UniProt O14788 140-317, looked up)
Tumor necrosis factor ligand …: IRAEKAMVDGSWLDLAKRSKLEAQPFAHLTINATDIPSGSHKVSLSSWYHDRGWAKISNMTFSNGKLIVNQDGFYYLYANICFRHHETSGDLATEYLQLMVYVTKTSIKIPSSHTLMKGGSTKYWSGNSEFHFYSINVGGFFKLRSGEEISIEVSNPSLLDPDQDATYFGAFKVRDID
With B1, the “new bone formation compared to control group” value in assay [2] is reported as “significantly (p<0.05) higher”.
